Assay results: ChEMBL document CHEMBL1201862, “PubChem BioAssay data set” (2004)
Several values for one entry are separate records, joined by “and”; a condition that tells them apart may be missing. Equal entries are not always repeated.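 48-hour exposure; five concentrations; linearly interpolated endpoints. The concentration for 50% growth inhibition is given as GI50.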 Activity calls are given as the source filed them. No stated cut-off is given here; in the data, active = GI50 up to about 1.1 µM and inactive = higher.

What was measured:
Assay in all cases: growth of human tumour cells (NCI), 48 h
[1] = test system: SK-MEL-5
[2] = test system: A498
[3] = test system: Malme-3M
[4] = test system: NCI-H226
[5] = test system: HCC 2998
[6] = test system: SN12C
[7] = test system: CCRF-CEM
[8] = test system: M19-MEL
[9] = test system: UACC-257
[10] = test system: KM12
[11] = test system: UACC-62
[12] = test system: RXF 393
[13] = test system: SK-MEL-28
[14] = test system: RPMI-8226
[15] = test system: TK-10
[16] = test system: HCT-15
[17] = test system: HT-29
[18] = test system: T47D
[19] = test system: NCI/ADR-RES
[20] = test system: MDA-N

Row | Structure (SMILES) | GI50 [1] | GI50 [2] | GI50 [3] | GI50 [4] | GI50 [5] | GI50 [6] | GI50 [7] | GI50 [8] | GI50 [9] | GI50 [10] | GI50 [11] | GI50 [12] | GI50 [13] | GI50 [14] | GI50 [15] | GI50 [16] [µM] | GI50 [17] | GI50 [18] | GI50 [19] | GI50 [20]
1 | CC(C)O/C=C1\C(=O)C2(SCCS2)[C@H]2CCCC[C@@H]12 | 25.2 µM (inactive) | 17.7 µM (inactive) | 32.7 µM (inactive) | 84.1 µM (inactive) | 66.4 µM (inactive) | 68.7 µM (inactive) | 25.5 µM (inactive) | 71 µM (inactive) | 42.6 µM (inactive) | 35.6 µM (inactive) | 20.9 µM (inactive) | 21.8 µM (inactive) | > 100 µM (inactive) | 25.4 µM (inactive) | 43 µM (inactive) | 33.9 |  |  |  | 
2 | CC1=NN(C(=O)Nc2ccccc2)C(=O)C2CCC(=O)N12 (configuration not stated) | > 100 µM (inactive) | > 100 µM (inactive) |  |  | > 100 µM (inactive) | > 100 µM (inactive) | > 100 µM (inactive) | > 100 µM (inactive) | > 100 µM (inactive) | > 100 µM (inactive) | > 100 µM (inactive) | > 100 µM (inactive) | > 100 µM (inactive) | > 100 µM (inactive) | > 100 µM (inactive) | > 100 |  |  |  | 
3 | CC1=CC(=C(c2ccc(N)c(C)c2)c2ccc(N)c(C)c2)C=CC1=N | 2.07 µM (inactive) | 9.16 µM (inactive) | 2.91 µM (inactive) | 3.93 µM (inactive) | 3.44 µM (inactive) | 0.33 µM (active) | 2.86 µM (inactive) | 2.65 µM (inactive) | 3 µM (inactive) | 3.24 µM (inactive) | 2.69 µM (inactive) | 5.92 µM (inactive) | 5.71 µM (inactive) | 2.18 µM (inactive) | 15.5 µM (inactive) | 12.8 | 3.64 µM (inactive) |  |  | 
4 | CCCCCCCCCCCCCCCCCCOCC(COCCOCC[N+]1(CCCCCC(=O)[O-])CCCC1)Oc1ncccn1 (configuration not stated) | 4.22 µM (inactive) | 5.94 µM (inactive) | 16.7 µM (inactive) | 11.2 µM (inactive) | 2.51 µM (inactive) | 4.44 µM (inactive) | 2.59 µM (inactive) | 0.7 µM (active) | 8.02 µM (inactive) | 2.58 µM (inactive) | 3.35 µM (inactive) | 1.4 µM (inactive) | 6.68 µM (inactive) | 1.04 µM (active) | 4.06 µM (inactive) | 12.8 | 1.73 µM (inactive) | 5.13 µM (inactive) | 15.4 µM (inactive) | 10.5 µM (inactive)
5 | Cc1ccc(S(=O)(=O)SC/C=C\CSS(=O)(=O)c2ccc(C)cc2)cc1 | 27.6 µM (inactive) and 29.3 µM (inactive) | 57.1 µM (inactive) and 49.4 µM (inactive) | 34.7 µM (inactive) and 20.2 µM (inactive) | 23.1 µM (inactive) and 24.3 µM (inactive) | 49.1 µM (inactive) and 55 µM (inactive) | 18.8 µM (inactive) and 9.71 µM (inactive) | 0.262 µM (active) | 35.3 µM (inactive) and 44.6 µM (inactive) |  | 14.7 µM (inactive) and 17.2 µM (inactive) | 17.6 µM (inactive) and 20.9 µM (inactive) | 18 µM (inactive) and 22.8 µM (inactive) |  |  |  |  |  | 39.3 µM (inactive) | 52.2 µM (inactive) | 14.4 µM (inactive)
6 | CSC1C=C(C(C)C)CCC1(C)SC (configuration not stated) | 17.5 µM (inactive) | 25.6 µM (inactive) | 13.3 µM (inactive) | 17.4 µM (inactive) | 16.6 µM (inactive) | 16.9 µM (inactive) | 21 µM (inactive) | 16.9 µM (inactive) | 15.9 µM (inactive) | 14.3 µM (inactive) | 25.6 µM (inactive) | 15.5 µM (inactive) | 19.4 µM (inactive) | 20.9 µM (inactive) | 21.4 µM (inactive) | 21 | 15.4 µM (inactive) |  |  | 
7 | COC12C(COC(=O)NCCO)C3=C(C(=O)C(C)=C(N)C3=O)N1CC1NC12 (configuration not stated) | 14.2 µM (inactive) | 60.7 µM (inactive) | 21.1 µM (inactive) | 16.9 µM (inactive) | 34.8 µM (inactive) | 7.94 µM (inactive) | 12.1 µM (inactive) | 19.8 µM (inactive) | 69.7 µM (inactive) | 69.3 µM (inactive) | 8.11 µM (inactive) | 24 µM (inactive) | > 100 µM (inactive) | 74.8 µM (inactive) | 83.2 µM (inactive) | 170 | 29.2 µM (inactive) | 60.3 µM (inactive) | > 264 µM (inactive) | 86.1 µM (inactive)
8 | COc1ccc(C(=O)C(c2ccc(OC)cc2)C2(O)C(=O)Nc3c(C)cc(Cl)cc32)cc1 (configuration not stated) |  | > 100 µM (inactive) | > 100 µM (inactive) | 76.6 µM (inactive) | > 100 µM (inactive) | 58.1 µM (inactive) | 10.3 µM (inactive) | 20.8 µM (inactive) | 55 µM (inactive) | > 100 µM (inactive) | 23.2 µM (inactive) | > 100 µM (inactive) | > 100 µM (inactive) | 14.4 µM (inactive) | > 100 µM (inactive) | > 100 | 63.5 µM (inactive) |  |  | 
9 | O=C1C(=Cc2ccc(F)cc2)C(=O)c2ccccc21 | > 100 µM (inactive) | > 100 µM (inactive) | > 100 µM (inactive) | > 100 µM (inactive) | > 100 µM (inactive) |  | 41.2 µM (inactive) | 96.2 µM (inactive) | > 100 µM (inactive) | > 100 µM (inactive) | > 100 µM (inactive) |  | > 100 µM (inactive) | 49.8 µM (inactive) | > 100 µM (inactive) | > 100 | > 100 µM (inactive) |  |  | 
10 | O=C(O)CSc1nnc(-c2ccccc2O)[nH]1 | > 100 µM (inactive) | > 100 µM (inactive) | > 100 µM (inactive) | > 100 µM (inactive) | > 100 µM (inactive) | > 100 µM (inactive) | > 100 µM (inactive) | > 100 µM (inactive) | > 100 µM (inactive) |  | > 100 µM (inactive) | > 100 µM (inactive) | > 100 µM (inactive) | > 100 µM (inactive) | > 100 µM (inactive) | > 100 | > 100 µM (inactive) |  |  | 
11 | CC1=CC(=O)c2ccc3c4ccccc4n(C)c3c2C1=O | 13.6 µM (inactive) | 83.6 µM (inactive) | 6.67 µM (inactive) | > 94.4 µM (inactive) | > 96.4 µM (inactive) | > 69 µM (inactive) | 20.8 µM (inactive) | 10.1 µM (inactive) | 46.3 µM (inactive) | 34.4 µM (inactive) |  | 43.6 µM (inactive) | 60.7 µM (inactive) | > 41.2 µM (inactive) | > 100 µM (inactive) | 25.5 | > 31.6 µM (inactive) | 33.8 µM (inactive) | > 100 µM (inactive) | 16.6 µM (inactive)
12 | C=CCc1ccc(O)c(-c2cc(C3Oc4c(-c5cc(CC=C)ccc5O)cc(O)cc4[C@@H]3CO)ccc2O)c1 (some centres not stated) | 16 µM (inactive) | 14.8 µM (inactive) | 50.4 µM (inactive) | 53.8 µM (inactive) | 22.1 µM (inactive) | 32.9 µM (inactive) | 20.7 µM (inactive) | 33.4 µM (inactive) | 73.5 µM (inactive) | 27.4 µM (inactive) | 30.3 µM (inactive) | 21.2 µM (inactive) | 26.7 µM (inactive) | 24.9 µM (inactive) | 66.1 µM (inactive) | 15.8 | 33.3 µM (inactive) |  |  | 
13 | CCCCCCCCCCCCCCCC(=O)NCC(COP(=O)([O-])OCC[N+](C)(C)C)OCC (configuration not stated) | 18.9 µM (inactive) | > 10 µM (inactive) | 16.9 µM (inactive) | 3.12 µM (inactive) | 1.55 µM (inactive) | 12.5 µM (inactive) |  | 4.5 µM (inactive) | 15.7 µM (inactive) | 1.27 µM (inactive) | 9.35 µM (inactive) | 2.1 µM (inactive) | 21 µM (inactive) | 2.9 µM (inactive) | 1.63 µM (inactive) | 6.4 | 5.22 µM (inactive) |  |  | 
14 | CN(C)/N=N/c1cccc(C(N)=O)c1 | > 100 µM (inactive) | > 100 µM (inactive) | > 100 µM (inactive) | > 100 µM (inactive) | > 100 µM (inactive) | > 100 µM (inactive) | > 100 µM (inactive) | > 100 µM (inactive) |  | > 100 µM (inactive) |  | > 100 µM (inactive) | > 100 µM (inactive) | > 100 µM (inactive) | > 100 µM (inactive) | > 100 | > 100 µM (inactive) |  |  | 
